Measured values reported in PubChem BioAssay AID2060615 (Molecular Pharmacology Branch, DTP, NCI, 2025).
“And” between values parts separate entries of the source, which are not always exact repeats. Equal values may be shown once.

Test system: 496974-208-R-J2-PDC complex spheroids, growth % test/control
Assay: Anticancer human tumor 496974-208-R-J2-PDC patient-derived pancreatic carcinoma cell line growth inhibition [CLK]
Conditions: for IC50: curve of first compound; for viability, T/C: stronger effect = lower value
Method in brief: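 Patient-derived tumor cells grown as complex spheroids with HUVEC endothelial cells and mesenchymal stem cells, treated with drug combinations. Concentrations descend in half-log steps from near clinical Cmax, or from 10 microM if Cmax unknown.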

[1] = second compound 0.0316 µM, first compound 0.0316 µM
[2] = second compound 0.0316 µM, first compound 0.1 µM
[3] = second compound 0.0316 µM, first compound 0.316 µM
[4] = second compound 0.0316 µM, first compound 1 µM
[5] = second compound 0.0316 µM, first compound 3.16 µM
[6] = second compound 0.0316 µM, first compound 10 µM
[7] = second compound 0.1 µM, first compound 0.0316 µM
[8] = second compound 0.1 µM, first compound 0.1 µM
[9] = second compound 0.1 µM, first compound 0.316 µM
[10] = second compound 0.1 µM, first compound 1 µM
[11] = second compound 0.1 µM, first compound 3.16 µM
[12] = second compound 0.1 µM, first compound 10 µM
[13] = second compound 0.316 µM, first compound 0.0316 µM
[14] = second compound 0.316 µM, first compound 0.1 µM
[15] = second compound 0.316 µM, first compound 0.316 µM
[16] = second compound 0.316 µM, first compound 1 µM
[17] = second compound 0.316 µM, first compound 3.16 µM
[18] = second compound 0.316 µM, first compound 10 µM
[19] = second compound 1 µM, first compound 0.0316 µM
[20] = second compound 1 µM, first compound 0.1 µM
[21] = second compound 1 µM, first compound 0.316 µM
[22] = second compound 1 µM, first compound 1 µM
[23] = second compound 1 µM, first compound 3.16 µM
[24] = second compound 1 µM, first compound 10 µM
[25] = second compound 3.16 µM, first compound 0.0316 µM
[26] = second compound 3.16 µM, first compound 0.1 µM
[27] = second compound 3.16 µM, first compound 0.316 µM
[28] = second compound 3.16 µM, first compound 1 µM
[29] = second compound 3.16 µM, first compound 3.16 µM
[30] = second compound 3.16 µM, first compound 10 µM
[31] = second compound 10 µM, first compound 0.0316 µM
[32] = second compound 10 µM, first compound 0.1 µM
[33] = second compound 10 µM, first compound 0.316 µM
[34] = second compound 10 µM, first compound 1 µM
[35] = second compound 10 µM, first compound 3.16 µM
[36] = second compound 10 µM, first compound 10 µM
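Note: spheroids exposed to the drugs for 7 days before readout.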
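Throughout, for viability, T/C: 100% = DMSO vehicle control wells.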

## O=c1[nH]cc(F)c(=O)[nH]1 + CN1CCN(c2cc(C(=O)Nc3cc4cc(-c5cnn(C)c5)ccc4cn3)ccn2)CC1
Second compound 0.0316 µM
  IC50: 5.87 µM
Second compound 0.1 µM
  IC50: 4.19 µM
Second compound 0.316 µM
  IC50: < 0.0316 µM
Second compound 1 µM
  IC50: < 0.0316 µM
Second compound 3.16 µM
  IC50: < 0.0316 µM
Second compound 10 µM
  IC50: < 0.0316 µM
[1]
  viability, T/C: 108%
[2]
  viability, T/C: 99.2%
[3]
  viability, T/C: 99.3%
[4]
  viability, T/C: 76.8%
[5]
  viability, T/C: 60.1%
[6]
  viability, T/C: 42%
[7]
  viability, T/C: 83.5%
[8]
  viability, T/C: 83.7%
[9]
  viability, T/C: 76.3%
[10]
  viability, T/C: 68.1%
[11]
  viability, T/C: 54.2%
[12]
  viability, T/C: 37.4%
[13]
  viability, T/C: 7.23%
[14]
  viability, T/C: 6.68%
[15]
  viability, T/C: 5.78%
[16]
  viability, T/C: 6.41%
[17]
  viability, T/C: 6.09%
[18]
  viability, T/C: 6.36%
[19]
  viability, T/C: 0.41%
[20]
  viability, T/C: 0.51%
[21]
  viability, T/C: 0.5%
[22]
  viability, T/C: 0.43%
[23]
  viability, T/C: 0.32%
[24]
  viability, T/C: 0.55%
[25]
  viability, T/C: 0.44%
[26]
  viability, T/C: 0.46%
[27]
  viability, T/C: 0.41%
[28]
  viability, T/C: 0.57%
[29]
  viability, T/C: 0.41%
[30]
  viability, T/C: 2.84%
[31]
  viability, T/C: 0.24%
[32]
  viability, T/C: 0.41%
[33]
  viability, T/C: 0.35%
[34]
  viability, T/C: 0.27%
[35]
  viability, T/C: 1.4%
[36]
  viability, T/C: 1.8%

## O=c1[nH]cc(F)c(=O)[nH]1 + CNC(=O)c1ccc(Nc2nc(OC3CCCC3)c3c(-c4ccc5nc(C)oc5c4)c[nH]c3n2)c(OC)c1
Second compound 0.0316 µM
  IC50: > 10 µM
Second compound 0.1 µM
  IC50: > 10 µM
Second compound 0.316 µM
  IC50: > 10 µM
Second compound 1 µM
  IC50: 6.38 µM
Second compound 3.16 µM
  IC50: > 10 µM
Second compound 10 µM
  IC50: 1.21 µM
[1]
  viability, T/C: 102%
[2]
  viability, T/C: 88.6%
[3]
  viability, T/C: 92.7%
[4]
  viability, T/C: 85.3%
[5]
  viability, T/C: 72.2%
[6]
  viability, T/C: 61.8%
[7]
  viability, T/C: 74.8%
[8]
  viability, T/C: 83.1%
[9]
  viability, T/C: 76.2%
[10]
  viability, T/C: 81.8%
[11]
  viability, T/C: 70.7%
[12]
  viability, T/C: 58.7%
[13]
  viability, T/C: 78.5%
[14]
  viability, T/C: 76.4%
[15]
  viability, T/C: 68.2%
[16]
  viability, T/C: 70.4%
[17]
  viability, T/C: 67.1%
[18]
  viability, T/C: 54.6%
[19]
  viability, T/C: 73.7%
[20]
  viability, T/C: 67.3%
[21]
  viability, T/C: 71.5%
[22]
  viability, T/C: 69%
[23]
  viability, T/C: 56.9%
[24]
  viability, T/C: 45.6%
[25]
  viability, T/C: 63.5%
[26]
  viability, T/C: 58.6%
[27]
  viability, T/C: 64%
[28]
  viability, T/C: 54%
[29]
  viability, T/C: 55.2%
[30]
  viability, T/C: 48.5%
[31]
  viability, T/C: 51.8%
[32]
  viability, T/C: 58.5%
[33]
  viability, T/C: 54.2%
[34]
  viability, T/C: 51.8%
[35]
  viability, T/C: 41.3%
[36]
  viability, T/C: 39%

## Nc1ccn(C2OC(CO)C(O)C2(F)F)c(=O)n1 (stereo not given)
Compound 0.0316 µM
  viability, T/C: 89.3% and 93.5%
Compound 0.1 µM
  viability, T/C: 67.2% and 76.4%
Compound 0.316 µM
  viability, T/C: 57.7% and 72.4%
Compound 1 µM
  viability, T/C: 44.9% and 58%
Compound 3.16 µM
  viability, T/C: 50.7% and 63.3%
Compound 10 µM
  viability, T/C: 44.3% and 53.2%
